Where two headings read alike, the source gives them in different places.
Legend:
Format in all cases: in vivo
[1] = test system: morningglory (Ipomoea spp.); assay: Test A pre-/postemergence: morningglory; conditions: Ipomoea, 240 h; for pest or weed control at 125 g/ha: 125 g ai/ha; for pest or weed control at 500 g/ha: 500 g ai/ha
Method in brief: (§1)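 Plants in loam–sand blend were treated with test chemicals in non-phytotoxic solvent with surfactant, either as preemergence directed soil spray or postemergence at 2–10 cm, one- to two-leaf stage. After about ten days in greenhouse, injury was rated visually against untreated controls on a 0–100 scale (100 = complete control).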

[2] = test system: pigweed (Amaranthus retroflexus); assay: Test A pre-/postemergence: pigweed; conditions: Amaranthus retroflexus, 240 h; for pest or weed control at 125 g/ha: 125 g ai/ha; for pest or weed control at 500 g/ha: 500 g ai/ha
Method in brief: as §1

[3] = test system: wheat (Triticum aestivum); assay: Test A pre-/postemergence: wheat; conditions: Triticum aestivum, 240 h; for plant injury at 125 g/ha: 125 g ai/ha; for plant injury at 500 g/ha: 500 g ai/ha
Method in brief: as §1

[4] = test system: corn (Zea mays); assay: Test A pre-/postemergence: corn; conditions: Zea mays, 240 h
Method in brief: as §1

[5] = test system: ryegrass, Italian (Italian ryegrass, Lolium multiflorum); assay: Test C pre-/postemergence: ryegrass, Italian
Method in brief: (§2)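 Preemergence on seeds in loam/sand, postemergence on 2–18 cm (1–4-leaf) plants in peat-based medium; compounds in non-phytotoxic solvent with surfactant. After 13–15 days in greenhouse, visual rating versus controls, 0 (no effect) to 100 (complete control).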

[6] = test system: wild oat (Avena fatua); assay: Test C pre-/postemergence: wild oat
Method in brief: as §2

[7] = test system: corn (Zea mays); assay: Test C pre-/postemergence: corn
Method in brief: as §2

[8] = test system: large crabgrass (Digitaria sanguinalis); assay: Test C pre-/postemergence: large crabgrass
Method in brief: as §2

[9] = test system: johnsongrass (Sorghum halepense); assay: Test C pre-/postemergence: johnsongrass
Method in brief: as §2

[10] = test system: morningglory (Ipomoea coccinea); assay: Test C pre-/postemergence: morningglory
Method in brief: as §2

[11] = test system: ragweed (common ragweed, Ambrosia elation); assay: Test C pre-/postemergence: ragweed
Method in brief: as §2

[12] = test system: chickweed (common chickweed, Stellaria media); assay: Test C postemergence: chickweed; conditions: 31 g ai/ha, scale 0 to 100 (0 no effect, 100 complete control)
Method in brief: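 Greenhouse pot test; foliar postemergence treatment at 1- to 4-leaf stage. Rated visually at 13 to 15 days on a 0–100 control scale relative to untreated plants.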

[13] = Postemergence, 31 g ai/ha, scale 0 to 100 (0 no effect, 100 complete control)
[14] = Postemergence, 62 g ai/ha, scale 0 to 100 (0 no effect, 100 complete control)
[15] = Postemergence, 125 g ai/ha, scale 0 to 100, 0 no effect, 100 complete control
[16] = Postemergence, 250 g ai/ha, scale 0 to 100
[17] = Preemergence, 31 g ai/ha, scale of 0 to 100, 0 is no effect, 100 is complete control
[18] = Preemergence, 62 g ai/ha, scale of 0 to 100, 0 is no effect, 100 is complete control
[19] = Preemergence, 125 g ai/ha, scale 0 to 100, 0 no effect, 100 complete control
[20] = Preemergence, 250 g ai/ha, scale 0 to 100, 0 no effect, 100 complete control

## Cc1nn(-c2ccc(C(F)(F)F)cc2)nc1Cc1ccnc(C(F)(F)F)c1 [Compound 47, 4-[[5-methyl-2-[4-(trifluoromethyl)phenyl]-2H-1,2,3-triazol-4-yl]methyl]-2-(trifluoromethyl)pyridine]
[1]; post-emergence, Postemergence, 0 to 100 scale, 0 is no effect, 100 is complete control, read-out: Morningglory plant response rating
  pest or weed control at 125 g/ha: 90%
[1]; post-emergence, Postemergence, visual rating on 0 to 100 scale (0 no effect, 100 complete control), approximately ten days, read-out: Morningglory plant response rating
  pest or weed control at 500 g/ha: 90%
[1]; pre-emergence, Preemergence, 0 to 100 scale (0 no effect, 100 complete control), read-out: Plant response rating, Morningglory
  pest or weed control at 125 g/ha: 70%
[1]; pre-emergence, Preemergence, 0 to 100 scale, 0 is no effect, 100 is complete control, read-out: Plant response rating, Morningglory
  pest or weed control at 500 g/ha: 80%
[2]; post-emergence, Postemergence, 0 to 100 scale, 0 is no effect, 100 is complete control, read-out: Pigweed plant response rating
  pest or weed control at 125 g/ha: 100%
[2]; post-emergence, Postemergence, visual rating on 0 to 100 scale (0 no effect, 100 complete control), approximately ten days, read-out: Pigweed plant response rating
  pest or weed control at 500 g/ha: 100%
[2]; pre-emergence, Preemergence, 0 to 100 scale (0 no effect, 100 complete control), read-out: Plant response rating, Pigweed
  pest or weed control at 125 g/ha: 100%
[2]; pre-emergence, Preemergence, 0 to 100 scale, 0 is no effect, 100 is complete control, read-out: Plant response rating, Pigweed
  pest or weed control at 500 g/ha: 100%
[3]; post-emergence, Postemergence, 0 to 100 scale, 0 is no effect, 100 is complete control, read-out: Wheat plant response rating
  plant injury at 125 g/ha: 30%
[3]; post-emergence, Postemergence, visual rating on 0 to 100 scale (0 no effect, 100 complete control), approximately ten days, read-out: Wheat plant response rating
  plant injury at 500 g/ha: 50%
[3]; pre-emergence, Preemergence, 0 to 100 scale (0 no effect, 100 complete control), read-out: Plant response rating, Wheat
  plant injury at 125 g/ha: 30%
[3]; pre-emergence, Preemergence, 0 to 100 scale, 0 is no effect, 100 is complete control, read-out: Plant response rating, Wheat
  plant injury at 500 g/ha: 40%
[4]; post-emergence, Postemergence, 125 g ai/ha, 0 to 100 scale, 0 is no effect, 100 is complete control, read-out: Corn plant response rating
  plant injury at 125 g/ha: 20%
[4]; post-emergence, Postemergence, 500 g ai/ha, visual rating on 0 to 100 scale (0 no effect, 100 complete control), approximately ten days, read-out: Corn plant response rating
  plant injury at 500 g/ha: 40%
[4]; pre-emergence, Preemergence, 125 g ai/ha, 0 to 100 scale (0 no effect, 100 complete control)
  Corn plant response rating (crop injury, 0 = no effect, 100 = complete kill) at 125 g/ha: 20%
[4]; pre-emergence, Preemergence, 500 g ai/ha, 0 to 100 scale, 0 is no effect, 100 is complete control
  Corn plant response rating (crop injury, 0 = no effect, 100 = complete kill) at 500 g/ha: 30%
[5]; [13]
  Plant response rating, Ryegrass, Italian: 35
[5]; [14]
  Plant response rating, Ryegrass, Italian: 65
[5]; [15]
  Plant response rating, Ryegrass, Italian: 75
[5]; [16]
  Plant response rating, Ryegrass, Italian: 85
[5]; [17]
  Plant response rating, Ryegrass, Italian: 35
[5]; [18]
  Plant response rating, Ryegrass, Italian: 50
[5]; [19]
  Plant response rating, Ryegrass, Italian: 90
[5]; [20]
  Plant response rating, Ryegrass, Italian: 98
[6]; [13]
  Plant response rating, Oat, Wild: 35
[6]; [15]
  Plant response rating, Oat, Wild: 85
[6]; [16]
  Plant response rating, Oat, Wild: 90
[6]; [17]
  Plant response rating, Oat, Wild: 80
[6]; [18]
  Plant response rating, Oat, Wild: 90
[6]; [19]
  Plant response rating, Oat, Wild: 90
[6]; [20]
  Plant response rating, Oat, Wild: 100
[7]; [13]
  Plant response rating, Corn: 5
[7]; [14]
  Plant response rating, Corn: 15
[7]; [15]
  Plant response rating, Corn: 15
[7]; [16]
  Plant response rating, Corn: 25
[7]; [17]
  Plant response rating, Corn: 0
[7]; Preemergence, 62 g ai/ha, scale 0 to 100, 0 no effect, 100 complete control
  Plant response rating, Corn: 5
[7]; [19]
  Plant response rating, Corn: 10
[7]; [20]
  Plant response rating, Corn: 40
[8]; [13]
  Plant response rating, Crabgrass, Large: 5
[8]; [14]
  Plant response rating, Crabgrass, Large: 15
[8]; [15]
  Plant response rating, Crabgrass, Large: 35
[8]; [16]
  Plant response rating, Crabgrass, Large: 50
[8]; [17]
  Plant response rating, Crabgrass, Large: 45
[8]; [18]
  Plant response rating, Crabgrass, Large: 98
[8]; [19]
  Plant response rating, Crabgrass, Large: 100
[8]; [20]
  Plant response rating, Crabgrass, Large: 100
[9]; [13]
  Plant response rating, Johnsongrass: 0
[9]; [14]
  Plant response rating, Johnsongrass: 10
[9]; [15]
  Plant response rating, Johnsongrass: 35
[9]; [16]
  Plant response rating, Johnsongrass: 50
[9]; [17]
  Plant response rating, Johnsongrass: 5
[9]; [18]
  Plant response rating, Johnsongrass: 10
[9]; [19]
  Plant response rating, Johnsongrass: 60
[9]; [20]
  Plant response rating, Johnsongrass: 95
[10]; [13]
  Plant response rating, Morningglory: 75
[10]; [14]
  Plant response rating, Morningglory: 95
[10]; [15]
  Plant response rating, Morningglory: 100
[10]; [16]
  Plant response rating, Morningglory: 100
[10]; [17]
  Plant response rating, Morningglory: 5
[10]; [18]
  Plant response rating, Morningglory: 20
[10]; [19]
  Plant response rating, Morningglory: 50
[10]; [20]
  Plant response rating, Morningglory: 65
[11]; [13]
  Plant response rating, Ragweed: 45
[11]; [14]
  Plant response rating, Ragweed: 65
[11]; [15]
  Plant response rating, Ragweed: 75
[11]; [16]
  Plant response rating, Ragweed: 95
[11]; [17]
  Plant response rating, Ragweed: 5
[11]; [18]
  Plant response rating, Ragweed: 15
[11]; [19]
  Plant response rating, Ragweed: 45
[11]; [20]
  Plant response rating, Ragweed: 80
[12]
  Plant response rating, Chickweed: 80

From patent US9302999B2, “Substituted triazoles as herbicides” (E. I. DU PONT DE NEMOURS AND COMPANY, priority 2012, dated 2016)
